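Protocol summary: plate cells (96-well), add compound at 5 concentrations, incubate 48 h, interpolate endpoints linearly. The concentration for 50% growth inhibition is given as GI50.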 Active and inactive are the calls of the source. Rule as the data show it: active = GI50 up to about 1.1 µM and inactive = higher.
How the values were obtained:
Experiment in all cases: NCI tumour cell line growth inhibition, 48 h
HOP-92 = system: HOP-92
CAKI-1 = system: CAKI-1
HCC 2998 = system: HCC 2998
MDA-MB-435 = system: MDA-MB-435
OVCAR-5 = system: OVCAR-5
SF-295 = system: SF-295
SK-MEL-28 = system: SK-MEL-28
Hs-578T = system: Hs-578T
786-0 = system: 786-0
UACC-62 = system: UACC-62
EKVX = system: EKVX
DU-145 = system: DU-145
KM12 = system: KM12
SNB-19 = system: SNB-19
HCT-15 = system: HCT-15
TK-10 = system: TK-10
SW-620 = system: SW-620
A549 = system: A549
LOX IMVI = system: LOX IMVI
Malme-3M = system: Malme-3M
IGROV-1 = system: IGROV-1
NCI-H522 = system: NCI-H522
SK-MEL-2 = system: SK-MEL-2
SR = system: SR
T47D = system: T47D
CCRF-CEM = system: CCRF-CEM
BT-549 = system: BT-549
UACC-257 = system: UACC-257
HL-60 = system: HL-60
ACHN = system: ACHN
SK-MEL-5 = system: SK-MEL-5
A498 = system: A498
NCI/ADR-RES = system: NCI/ADR-RES
MCF7 = system: MCF7
OVCAR-4 = system: OVCAR-4
HOP-62 = system: HOP-62
HCT-116 = system: HCT-116
NCI-H23 = system: NCI-H23
PC-3 = system: PC-3
OVCAR-3 = system: OVCAR-3
SNB-75 = system: SNB-75
SF-539 = system: SF-539
SK-OV-3 = system: SK-OV-3
U-251 = system: U-251
COLO 205 = system: COLO 205
UO-31 = system: UO-31
MOLT-4 = system: MOLT-4
SN12C = system: SN12C
HT-29 = system: HT-29
OVCAR-8 = system: OVCAR-8
NCI-H460 = system: NCI-H460
MDA-MB-231 = system: MDA-MB-231
RXF 393 = system: RXF 393
K562 = system: K562
M14 = system: M14
NCI-H226 = system: NCI-H226
RPMI-8226 = system: RPMI-8226
MDA-N = system: MDA-N
SF-268 = system: SF-268

Measured: GI50

Cc1cc(N(CCOS(C)(=O)=O)CCOS(C)(=O)=O)ccc1/C=N/c1ccc(-c2csc(-c3ccccc3)n2)c(Cl)c1
active: CAKI-1 0.179 µM | CCRF-CEM 1.1 µM | ACHN 0.575 µM | NCI-H460 0.0647 µM
inactive: HOP-92 9.64 µM | HCC 2998 2.93 µM | MDA-MB-435 9.79 µM | OVCAR-5 17.3 µM | SF-295 2.36 µM | SK-MEL-28 21.6 µM | Hs-578T 18 µM | 786-0 2.05 µM | UACC-62 2.95 µM | EKVX 4.47 µM | DU-145 1.67 µM | KM12 11.2 µM | SNB-19 4.66 µM | TK-10 10.5 µM | SW-620 5.2 µM | A549 1.95 µM | LOX IMVI 6.73 µM | Malme-3M 11.9 µM | IGROV-1 8.2 µM | NCI-H522 1.63 µM | SK-MEL-2 21 µM | SR 1.54 µM | T47D 15.4 µM | BT-549 19.2 µM | UACC-257 20.4 µM | HL-60 2.45 µM | SK-MEL-5 7.6 µM | A498 1.6 µM | NCI/ADR-RES 13.3 µM | MCF7 4.27 µM | OVCAR-4 16 µM | HOP-62 6.05 µM | HCT-116 12.8 µM | NCI-H23 5.98 µM | PC-3 14.8 µM | OVCAR-3 8.65 µM | SNB-75 1.8 µM | SF-539 3.94 µM | SK-OV-3 3.37 µM | U-251 16.1 µM | COLO 205 1.64 µM | UO-31 9.75 µM | MOLT-4 2.43 µM | SN12C 8.81 µM | HT-29 9.91 µM | OVCAR-8 15.9 µM | MDA-MB-231 20.6 µM | RXF 393 2.12 µM | K562 6.28 µM | M14 8.67 µM | NCI-H226 9.12 µM | RPMI-8226 11.2 µM | MDA-N 3.78 µM | SF-268 8.63 µM
8.04 µM: HCT-15
